# Assay results reported in patent publication US20250205215A1, “NOVEL USE OF PITOLISANT FOR TREATING SEVERE FATIGUE” (BIOPROJET, priority 2022, published 2025).
# Entries after “also recorded” stand apart in the source; their conditions may differ. Counter-ions that a name gives are not always drawn. Like-named read-outs stand apart in the source and are kept apart here.
# Columns and labels:
# [1] = test system: patients with multiple sclerosis; conditions: cited from earlier work
# [2] = test system: patients with neurological conditions; conditions: meta-analysis, variety of neurological conditions; cited from earlier work
# [3] = test system: human volunteers deprived of sleep; assay: Fusion Frequency in volunteers deprived of sleep during 24 h; assay type: in vivo; conditions: 30 mg once a day
# Description: Pitolisant hydrochloride was administered once a day at a dose of 30 mg in human volunteers deprived of sleep during 24 h. Fatigue evaluated in these volunteers by the Fusion Frequency was not modified by either placebo or pitolisant at this dose.
# healthy volunteers [4] = assay: Wakefulness assessed by Spectral EEG in healthy volunteers; assay type: in vivo, human; conditions: 40 mg
# [5] = Blood levels of pitolisant and metabolites in healthy volunteers; assay type: in vivo, human; conditions: 160, 200 or 240 mg, blood samples
# Description: (§1) A group of 24 healthy volunteers received placebo or pitolisant monohydrochloride mg at doses of 160, 200 or 240 mg. This last dose corresponds to 6 times the maximum dosage recommended in narcolepsy.
# histamine H3 receptors = biological target: T1, histamine H3 receptors (Homo sapiens, UniProt Q9Y5N1); conditions: 40 mg, cited from earlier work
# T1 construct: Brain Histamine H3 Receptors Occupancy; from tissue; host or cells: living human brain (in vivo PET); value cited from Rusjan et al., Br J Pharmacol 2020
# healthy volunteers [6] = assay: Critical Flicker Fusion Test (CFFT) in healthy volunteers; assay type: in vivo, human; conditions: for Fusion Frequency (Flicker Fusion Test), fatigue: end of the day, healthy volunteers
# From the text: The flicker fusion frequency (F.F.F.) is defined as the frequency, in flickers per second, at which an interrupted light appears as a steady light. It has been established that the score made in such tests can be used as a measure of fatigue (Luczak A, et al. Ergonomics, 2005 Dec. 15; 48 (15):1770-92; Ma et al PLOS One, 2014 Feb. 5; 9 (2):e87121; Maeda et al Jpn J Radiol. 2011 August; 29 (7):483-7).
# In human healthy volunteers, fatigue can be evaluated at the end of the day, when fatigue tends to increase, using a known psychometric test, the Flicker Fusion Test as reported by Luczak A, et al. Ergonomics, 2005 Dec. 15; 48 (15):1770-92; Ma et al PLOS One, 2014 Feb. 5; 9 (2):e87121; Maeda et al Jpn J Radiol. 2011 August; 29 (7):483-7.
# In a group of 36 healthy volunteers, the change in Fusion Frequency was evaluated at several times along the day and after administration of either placebo or pitolisant monohydrochloride at increasing dosages (20, 40 or 60 mg).
# [7] = test system: patients with Obstructive Sleep Apnea (OSA); conditions: 20 mg od, cited from earlier work
# patients with narcolepsy = conditions: 20 to 40 mg once a day, cited from earlier work
# healthy volunteers [8] = assay: Adverse effect study at high doses in healthy volunteers; assay type: in vivo, human
# Description: as §1
# Furthermore, the rare abnormalities were reported in all treatment groups.
# [9] = 160, 200 or 240 mg, healthy volunteers
# T1 sequence (Q9Y5N1 whole entry): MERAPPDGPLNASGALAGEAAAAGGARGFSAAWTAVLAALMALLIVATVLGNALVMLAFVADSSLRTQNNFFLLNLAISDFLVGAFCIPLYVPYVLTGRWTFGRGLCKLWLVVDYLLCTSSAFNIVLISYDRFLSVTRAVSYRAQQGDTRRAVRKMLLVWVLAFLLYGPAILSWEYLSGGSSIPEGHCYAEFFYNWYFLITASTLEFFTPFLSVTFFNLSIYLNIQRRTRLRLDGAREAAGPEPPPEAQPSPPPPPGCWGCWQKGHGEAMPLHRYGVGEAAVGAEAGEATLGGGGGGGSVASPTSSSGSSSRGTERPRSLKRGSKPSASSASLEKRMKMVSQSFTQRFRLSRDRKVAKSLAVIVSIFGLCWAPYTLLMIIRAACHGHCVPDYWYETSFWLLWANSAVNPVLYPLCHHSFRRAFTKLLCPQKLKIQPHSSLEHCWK
structure (smiles),measurement,setting,value
"NC12CC3CC(CC(C3)C1)C2 [Amantadine, amantadine]",Adverse events versus placebo,[1],more frequent adverse events
same,Improving multiple sclerosis fatigue versus placebo,[1],not superior to placebo
COC(=O)C(c1ccccc1)C1CCCCN1 (stereo not shown) [methylphenidate],Adverse events versus placebo,[1],more frequent adverse events
same,Improving multiple sclerosis fatigue versus placebo,[1],not superior to placebo
NC(=O)C[S+]([O-])C(c1ccccc1)c1ccccc1 (stereo not shown) [modafinil],Effect on EDS,[2],generally effective
same,Effect on fatigue,[2],without clear effect
same,Adverse events versus placebo,[1],more frequent adverse events
same,Improving multiple sclerosis fatigue versus placebo,[1],not superior to placebo
Clc1ccc(CCCOCCCN2CCCCC2)cc1 [pitolisant monohydrochloride],Fatigue evaluated by the Fusion Frequency,[3]; listed as Pitolisant hydrochloride,not modified
same,Wakefulness by Spectral EEG,healthy volunteers [4],improved significantly
same,Blood level of pitolisant and metabolites,[5],dose proportionality
same,Occupancy of histamine H3 receptors (mean±SD),"histamine H3 receptors; PET scan, healthy volunteers",84±7%
same,Occupancy of the brain histamine H3-receptors (in words),histamine H3 receptors,high occupancy
same,"Fusion Frequency (Flicker Fusion Test), fatigue",healthy volunteers [6]; 60 mg orally,reversed the alteration
same,"Fusion Frequency (Flicker Fusion Test), fatigue","healthy volunteers [6]; 60 mg orally, listed as pitolisant hydrochloride",significantly improved
same,"Flicker Fusion Test, fatigue (conclusion)","healthy volunteers [6]; 30 to 40 mg treatment, conclusion over examples 1 and 2",not improved
same,"Fusion Frequency (Flicker Fusion Test), fatigue","healthy volunteers [6]; lower doses (20, 40 mg)",failed. to provide a significant change
same,SF evaluated with the Pichot scale,"[7]; OSA, trial of Dauvilliers et al. 2020",statistically different from placebo
same,EDS in patients with OSA,[7]; two trials,reduced
same,EDS and cataplexy in patients with narcolepsy,patients with narcolepsy; listed as Pitolisant monohydrochloride,shown to improve
same,Number and nature of adverse events versus placebo,healthy volunteers [8]; [9],did not differ
"Clc1ccc(CCCOCCCN2CCCCC2)cc1 [pitolisant, 3-(4-Chlorophenyl) propyl 3-piperidinopropyl ether]",Fatigue evaluated by the Fusion Frequency,[3],not improved
same,EDS and cataplexy in patients with narcolepsy,patients with narcolepsy,significant effect
same,Safety and tolerability,"healthy volunteers [8]; 160 mg, 200 mg and 240 mg (doses up to 240 mg od)",without overt adverse effect; also recorded: safe and well tolerated
same,"Laboratory parameters, vital signs, physical examination and ECG parameters",healthy volunteers [8]; [9],No significant abnormalities
